Test results as given in US12679877B2, “NPRA agonists, compositions, and uses thereof” (PharmaIn Corporation, priority 2017, dated 2026).
Non-standard residues stand in square brackets, D forms with d. No end group written: not given here. *: point of attachment. Stearoyl = CCCCCCCCCCCCCCCCCC(=O)*; Lauroyl = CCCCCCCCCCCC(=O)*

Tested on: natriuretic peptide receptors (NPRA or NPRB)
Test: 2-point blood cGMP evaluation (2 and 6 hours) after 15 mg/Kg s.c., cGMP Direct Biotrak EIA
Type: in vivo, CD-1 mice
Settings: for In vivo blood cGMP minus baseline, 2 hour (potency) / In vivo blood cGMP minus baseline, 6 hour (receptor depletion): 15 mg/Kg s.c. in mice (n=3), minus baseline 30 pmol/ml (n=12); for In vivo blood cGMP minus baseline, 2 hour (potency): 2 hours after dosing; for In vivo blood cGMP minus baseline, 6 hour (receptor depletion): 6 hours after dosing; for activity / potency compared to ANP, in words (2 hour data in Table 2) / apparent receptor depletion/internalization, in words (6 hour data in Table 2): 15 mg/Kg s.c. in mice, blood cGMP
Method: Various derivatives of ANP were made and screened for increase in vivo potency while limiting the apparent receptor depletion effects (or perhaps can act on another cGMP enhancing receptors) by looking at the level of blood cGMP at specific time points. […] Various derivatives were made and tested in vivo to determine the level of blood cGMP at 2 hours and 6 hours after subcutaneous administration of 15 mg/Kg in mice (which was allometrically equivalent to human dose of 1.5 mg/Kg) with the goal of finding derivatives that were therapeutically useful for increasing blood cGMP.
For 2-point cGMP evaluation of various derivatives, test samples were dissolved in water (Lonza, Wakersville, MD) before being lyophilized. Prior to use, the lyophilized test sample was dissolved in saline then 15 mg/Kg was injected subcutaneously into female CD-1 mice 6-8 weeks (n=3). Blood samples were collected at 2 and 6 hours with K2EDTA blood collection tube. The collection tube was then centrifuged at 13,000 rpm for 10 minutes at 4° C. to separate plasma. The plasma was analyzed using the cGMP Direct Biotrak EIA (GE Healthcare Life Sciences, Marlborough, MA). Note that by using allometric scaling at exponent of 0.7 [dose in other species=mice dose/((mouse weight/weight of average other species)^0.7)], the 15 mg/Kg in mice is equivalent to about 7.5 mg/Kg rat dose, about 2.5 mg/Kg dog dose, and 1.5 mg/Kg human dose. For the purpose the present disclosure, the 15 mg/Kg in mice as presented in the relevant data examples, should be understood as equivalent to about 7.5 mg/Kg rat dose, which is equivalent to about 2.5 mg/Kg dog dose, which is equivalent to about 1.5 mg/Kg human dose. Because the mice cGMP response to 15 mg/Kg dose of the newly discovered derivatives (see Table 2) was quite high, it would be prudent to use daily doses that are lower than 15 mg/Kg for mice, 7.5 mg/Kg for rat, 2.5 mg/Kg for dog, and 1.5 mg/Kg for human since any higher dose may result in too much increase in cGMP that can result in too much or even dangerous drop in blood pressure unless formulated in a very slow release delivery system. In fact based on cGMP response it was more preferable to use daily doses that are lower than […], 1.5 mg/Kg for rat, 0.5 mg/Kg for dog, and 0.3 mg/Kg for human. Additionally, the level of blood cGMP is preferably between 1.5 to 3-times of the normal baseline level. The blood or plasma cGMP normal baseline level was about 20-50 pmol/ml but could vary slightly depending on the assay kit used to measure the level.

## CH3(CH2)10CO-KKGGGSLRRSSCFGGRMDRIGAQSGLGCNSFRY (Lauroyl-KKGGGSLRRSSCFGGRMDRIGAQSGLGCNSFRY; not fully specified (bridges); printed as CH3(CH2)10CO-KKGGGSLRRSSCFGGRMDRIGAQSGLGCNSFRY; cysteine pairing not given here; listed as Homo Sapiens) [SEQ ID NO. 9]
  In vivo blood cGMP minus baseline, 2 hour (potency): 163.62 nM
  In vivo blood cGMP minus baseline, 6 hour (receptor depletion): 4.78 pmol/mL
  activity / potency compared to ANP, in words (2 hour data in Table 2): increased potency

## CH3(CH2)10CO-KKKGGGSLRRSSCFGGRMDRIGAQSGLGCNSFRY (Lauroyl-KKKGGGSLRRSSCFGGRMDRIGAQSGLGCNSFRY; not fully specified (bridges); printed as CH3(CH2)10CO-KKKGGGSLRRSSCFGGRMDRIGAQSGLGCNSFRY; cysteine pairing not given here; listed as Homo Sapiens) [SEQ ID NO. 11]
  In vivo blood cGMP minus baseline, 2 hour (potency): 136.16 nM
  In vivo blood cGMP minus baseline, 6 hour (receptor depletion): 10.28 pmol/mL
  activity / potency compared to ANP, in words (2 hour data in Table 2): increased potency

## CH3(CH2)10CO-KKKKGGGSLRRSSCFGGRMDRIGAQSGLGCNSFRY (Lauroyl-KKKKGGGSLRRSSCFGGRMDRIGAQSGLGCNSFRY; not fully specified (bridges); printed as CH3(CH2)10CO-KKKKGGGSLRRSSCFGGRMDRIGAQSGLGCNSFRY; cysteine pairing not given here; listed as Homo Sapiens) [SEQ ID NO. 15]
  In vivo blood cGMP minus baseline, 2 hour (potency): 60.52 nM
  In vivo blood cGMP minus baseline, 6 hour (receptor depletion): 3.36 pmol/mL
  activity / potency compared to ANP, in words (2 hour data in Table 2): increased potency
  apparent receptor depletion/internalization, in words (6 hour data in Table 2): prevented apparent receptor depletion/internalization

## CH3(CH2)16CO-KKGGGSLRRSSCFGGRMDRIGAQSGLGCNSFRY (Stearoyl-KKGGGSLRRSSCFGGRMDRIGAQSGLGCNSFRY; not fully specified (bridges); printed as CH3(CH2)16CO-KKGGGSLRRSSCFGGRMDRIGAQSGLGCNSFRY; cysteine pairing not given here; listed as Homo Sapiens) [SEQ ID NO. 10]
  In vivo blood cGMP minus baseline, 2 hour (potency): 183.12 nM
  In vivo blood cGMP minus baseline, 6 hour (receptor depletion): 14.78 pmol/mL
  activity / potency compared to ANP, in words (2 hour data in Table 2): increased potency

## CH3(CH2)16CO-KKKGGGSLRRSSCFGGRMDRIGAQSGLGCNSFRY (Stearoyl-KKKGGGSLRRSSCFGGRMDRIGAQSGLGCNSFRY; not fully specified (bridges); printed as CH3(CH2)16CO-KKKGGGSLRRSSCFGGRMDRIGAQSGLGCNSFRY; cysteine pairing not given here; listed as Homo Sapiens) [SEQ ID NO. 14]
  In vivo blood cGMP minus baseline, 2 hour (potency): 574.25 nM
  In vivo blood cGMP minus baseline, 6 hour (receptor depletion): 255.75 pmol/mL
  activity / potency compared to ANP, in words (2 hour data in Table 2): increased potency

## CH3(CH2)16CO-KKKKGGGSLRRSSCFGGRMDRIGAQSGLGCNSFRY (Stearoyl-KKKKGGGSLRRSSCFGGRMDRIGAQSGLGCNSFRY; not fully specified (bridges); printed as CH3(CH2)16CO-KKKKGGGSLRRSSCFGGRMDRIGAQSGLGCNSFRY; cysteine pairing not given here; listed as Homo Sapiens) [SEQ ID NO. 18]
  In vivo blood cGMP minus baseline, 2 hour (potency): 355.17 nM
  In vivo blood cGMP minus baseline, 6 hour (receptor depletion): 231.65 pmol/mL
  activity / potency compared to ANP, in words (2 hour data in Table 2): increased potency
  apparent receptor depletion/internalization, in words (6 hour data in Table 2): prevented apparent receptor depletion/internalization

## CH3(CH2)16CO-KKKKSLRRSSCFGGRMDRIGAQSGLGCNSFRY (Stearoyl-KKKKSLRRSSCFGGRMDRIGAQSGLGCNSFRY; not fully specified (bridges); cysteine pairing not given here; listed as Homo Sapiens) [SEQ ID NO. 35]
  In vivo blood cGMP minus baseline, 2 hour (potency): 45.00 nM
  In vivo blood cGMP minus baseline, 6 hour (receptor depletion): 12.79 pmol/mL
  activity / potency compared to ANP, in words (2 hour data in Table 2): slightly increased in activity
  apparent receptor depletion/internalization, in words (6 hour data in Table 2): no significant effect on apparent receptor internalization

## CH3(CH2)16CO-KKKKSLRRSSCFGGRMDRIGAQSGLGCNSFrY (Stearoyl-KKKKSLRRSSCFGGRMDRIGAQSGLGCNSF[dR]Y; not fully specified (bridges); printed as KKKKSLRRSSCFGGRMDRIGAQSGLGCNSFrY; cysteine pairing not given here; listed as Homo Sapiens) [SEQ ID NO. 36]
  In vivo blood cGMP minus baseline, 2 hour (potency): inactive
  In vivo blood cGMP minus baseline, 6 hour (receptor depletion): inactive

## CH3(CH2)16CO-RRR-SGRGGGCFGGRMDRIGAQSGLGCNSFRY (Stearoyl-RRRSGRGGGCFGGRMDRIGAQSGLGCNSFRY; not fully specified (bridges); printed as CH3(CH2)16CO-RRR-SGRGGGCFGGRMDRIGAQSGLG; cysteine pairing not given here; listed as Homo Sapiens) [SEQ ID NO. 37]
  In vivo blood cGMP minus baseline, 2 hour (potency): 45.61 nM
  In vivo blood cGMP minus baseline, 6 hour (receptor depletion): 10.16 pmol/mL
  activity / potency compared to ANP, in words (2 hour data in Table 2): limited increase in activity

## CH3(CH2)16CO-RRR-SGRGSGCFGGRMDRIGAQSGLGCNSFRY (Stearoyl-RRRSGRGSGCFGGRMDRIGAQSGLGCNSFRY; not fully specified (bridges); printed as CH3(CH2)16CO-RRR-SGRGSGCFGGRMDRIGAQSGLG; cysteine pairing not given here; listed as Homo Sapiens) [SEQ ID NO. 38]
  In vivo blood cGMP minus baseline, 2 hour (potency): 33.56 nM
  In vivo blood cGMP minus baseline, 6 hour (receptor depletion): 7.97 pmol/mL
  activity / potency compared to ANP, in words (2 hour data in Table 2): limited increase in activity

## CH3(CH2)16CO-RRR-SLPRSSCFGGRMDRIGAQSGLGCNSFRY-NH2 (Stearoyl-RRRSLPRSSCFGGRMDRIGAQSGLGCNSFRY-NH2; not fully specified (bridges); printed as CH3(CH2)16CO-RRR-SLPRSSCFGGRMDRIGAQSGLG; cysteine pairing not given here; listed as Homo Sapiens) [SEQ ID NO. 39]
  In vivo blood cGMP minus baseline, 2 hour (potency): inactive
  In vivo blood cGMP minus baseline, 6 hour (receptor depletion): inactive
  activity / potency compared to ANP, in words (2 hour data in Table 2): loss or diminished of activity

## CH3(CH2)16CO-RRR-SLPRSSCFGGRMDRIGAQSGLGCNSFrY-NH2 (Stearoyl-RRRSLPRSSCFGGRMDRIGAQSGLGCNSF[dR]Y-NH2; not fully specified (bridges); printed as CH3(CH2)16CO-RRR-SLPRSSCFGGRMDRIGAQSGLG; cysteine pairing not given here; listed as Homo Sapiens) [SEQ ID NO. 40]
  In vivo blood cGMP minus baseline, 2 hour (potency): inactive
  In vivo blood cGMP minus baseline, 6 hour (receptor depletion): inactive
  activity / potency compared to ANP, in words (2 hour data in Table 2): loss or diminished of activity

## CH3(CH2)16COKKGGGGLSKGCFGLKLDRIGSMSGLGC (Stearoyl-KKGGGGLSKGCFGLKLDRIGSMSGLGC; not fully specified (bridges); printed as CH3(CH2)16COKKGGGGLSKGCFGLKLDRIGSMSGLGC; cysteine pairing not given here; listed as Homo Sapiens) [SEQ ID NO. 86]
  In vivo blood cGMP minus baseline, 2 hour (potency): 80.2 nM
  In vivo blood cGMP minus baseline, 6 hour (receptor depletion): 42.37 pmol/mL

## CH3(CH2)16COKKKGGGGLSKGCFGLKLDRIGSMSGLGC (Stearoyl-KKKGGGGLSKGCFGLKLDRIGSMSGLGC; not fully specified (bridges); printed as CH3(CH2)16COKKKGGGGLSKGCFGLKLDRIGSMSGLGC; cysteine pairing not given here; listed as Homo Sapiens) [SEQ ID NO. 68]
  In vivo blood cGMP minus baseline, 2 hour (potency): 330.29 nM
  In vivo blood cGMP minus baseline, 6 hour (receptor depletion): 250.33 pmol/mL

## CH3(CH2)16COKKKKGGGGLSKGCFGLKLDRIGSMSGLGC (Stearoyl-KKKKGGGGLSKGCFGLKLDRIGSMSGLGC; not fully specified (bridges); printed as CH3(CH2)16COKKKKGGGGLSKGCFGLKLDRIGSMSG; cysteine pairing not given here; listed as Homo Sapiens) [SEQ ID NO. 72]
  In vivo blood cGMP minus baseline, 2 hour (potency): 544.99 nM
  In vivo blood cGMP minus baseline, 6 hour (receptor depletion): 368.29 pmol/mL
  activity / potency compared to ANP, in words (2 hour data in Table 2): increased potency
